From US20230183243A1, “HETEROARYL DERIVATIVES AND PHARMACEUTICAL COMPOSITION COMPRISING SAME AS ACTIVE INGREDIENT” (VORONOI INC., priority 2019, published 2023) come the findings set out here.

Like-named read-outs stand apart in the source and are kept apart here. Where only a bound is given, the exact number is not on record here.

One test has as its system MDA-MB-231 cells. The test can be described thus: Inhibition of proliferation of triple-negative breast cancer cells, CellTiter-Glo. The settings on record: Homo sapiens, 120 h; MDA-MB-231, cultured for 5 days. In kind it is cell-based. In short, it runs like this: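 MDA-MB-231 cells pre-cultured 24 h (5% CO2, 37 °C), then exposed to compound for 5 days at 12 three-fold dilutions, final 10 μM to 0.05 nM. Viability read by CellTiter-Glo luminescence after 10 min at 37 °C; growth inhibition calculated relative to untreated solvent-control cells.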
A general note: In ATP-based viability assays light output follows the ATP content of the culture.

The test system of another test is A549. The test can be described thus: Cell proliferation inhibition, carcinomas other than TNBC. In kind it is cell-based. As to the method:
(§1) To check an ability to inhibit the growth of (MDA-MB-231) cells in two triple-negative breast cancer cell lines, a test was performed, as follows. Cells were seeded in 180 μL of a culture broth at a density of 2,000 to 3,000 cells/well in a white clear bottom 96-well plate (Corning) according to the growth ability of each cell, and then cultured for 24 hours under conditions of 5% CO2 and 37° C. Thereafter, the compound was prepared by diluting a 10 mM stock solution three-fold with 100% DMSO at a total of 12 concentrations so that a peak concentration of the compound was in a range of 10 mM to 0.05 μM, and the diluted compound was then diluted in each cell culture medium so that a final concentration of the compound was in a range of 100 μM to 0.5 nM. 20 μL of a diluted solution diluted with a medium was added to the cell solution in which cells were seeded in the 96-well plate on the previous day so that a final concentration of the diluted solution was in a range of 10 μM to 0.05 nM. Each of the cells was cultured for 5 days. To check cell viability, a mixture provided in a CellTiter-Glo® Luminescent Cell Viability Assay Kit (Promega) was added to each of the cultured cell media, and cultured for another 10 minutes under a condition of 37° C. Then, a degree of luminescence (fluorescence) was measured. A degree of inhibition of the cell growth according to the treatment concentration of each of the compounds was calculated based on the fluorescence of the solvent control cells which were not treated with the compound. In this case, the concentration of each of the compounds inhibiting 50% of the cell growth was determined to be a GI50 (nM) value, and calculated using Prism (Version 7.01; GraphPad) software.
(§2) Next, the activities of the Example compounds against various types of carcinomas other than the TNBC were evaluated in a similar manner as described above. In the following table, the following active value range (GI50 (nM)) was used to evaluate cell proliferation inhibitory activity.

Another test relates to BxPC3. The test is described as above. In kind it is cell-based. As to the method:
as §1, §2

A further test relates to DU145. Described as above. In kind it is cell-based. As to the method: as §1, §2
The next test has as its system HCT116. The test is described as above. In kind it is cell-based. As to the method: as §1, §2
A further test deals with T1, TTK (Homo sapiens, UniProt P33981).
T1 sequence (P33981 1-857): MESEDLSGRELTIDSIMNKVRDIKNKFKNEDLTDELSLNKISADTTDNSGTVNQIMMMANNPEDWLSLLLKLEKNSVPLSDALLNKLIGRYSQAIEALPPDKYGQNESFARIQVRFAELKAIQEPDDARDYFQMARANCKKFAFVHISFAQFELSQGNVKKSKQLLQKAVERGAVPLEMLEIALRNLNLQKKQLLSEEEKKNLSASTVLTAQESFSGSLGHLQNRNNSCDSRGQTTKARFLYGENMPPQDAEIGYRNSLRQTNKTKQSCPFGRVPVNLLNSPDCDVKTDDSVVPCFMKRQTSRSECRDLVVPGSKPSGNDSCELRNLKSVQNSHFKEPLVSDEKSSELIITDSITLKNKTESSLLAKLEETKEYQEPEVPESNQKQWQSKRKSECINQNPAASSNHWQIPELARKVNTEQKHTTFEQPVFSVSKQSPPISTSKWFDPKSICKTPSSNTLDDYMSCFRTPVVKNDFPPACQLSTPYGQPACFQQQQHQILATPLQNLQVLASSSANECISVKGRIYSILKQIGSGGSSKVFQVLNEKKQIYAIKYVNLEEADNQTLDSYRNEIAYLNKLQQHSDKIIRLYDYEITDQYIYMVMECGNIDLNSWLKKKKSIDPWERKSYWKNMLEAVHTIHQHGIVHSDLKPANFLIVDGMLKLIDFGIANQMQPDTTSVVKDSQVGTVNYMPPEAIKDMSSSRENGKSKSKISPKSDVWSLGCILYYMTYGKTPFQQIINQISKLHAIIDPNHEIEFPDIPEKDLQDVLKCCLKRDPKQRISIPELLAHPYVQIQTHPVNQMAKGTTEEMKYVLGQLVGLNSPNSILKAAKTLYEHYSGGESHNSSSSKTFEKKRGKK
The test can be described thus: TTK enzyme activity, ADP-Glo kinase assay. In kind it is biochemical. Details: purchased SignalChem T20-10G. The note with it: purified human TTK, ATP 10 μM, 25° C., 2 hours. In short, it runs like this: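 Purified human TTK (25 ng) incubated with 10 μM ATP and substrate (0.2 μg) for 2 h at 25 °C in Tris-HCl pH 7.4, MgCl2, BSA, DTT buffer. ADP formation read by ADP-Glo; inhibition calculated against untreated solvent control.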
On the technique in general: ADP-Glo first removes unused ATP, then detects ADP through luciferase.

The next test concerns SHP-77. The test can be described thus: Inhibition of proliferation of small cell lung cancer cells, CellTiter-Glo. The note with it: Homo sapiens, SHP77, 120 h; SHP-77, cultured for 5 days. The format is cell-based. The procedure, abridged:
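SHP-77 cells at 2,000–3,000 cells/well, cultured 24 h at 37° C, 5% CO2, then given 12 threefold compound dilutions, final 10 μM to 0.05 nM, for 5 days. Viability by CellTiter-Glo luminescence relative to solvent control. GI50 from concentration–response.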

Turning to `COc1cc(N2CCCC2=O)ccc1Nc1nc(NC2CCCCC2)c2c(C(F)(F)F)c[nH]c2n1` [Example 53, 1-(4-((4-(cyclohexylamino)-5-(trifluoromethy1)-7H-pyrrolo[2,3-d]pyrimidin-2-yl)amino)-3-methoxyphenyl) pyrrolidin-2-one], the GI50 (commonly the concentration giving 50% growth inhibition) is 100 to 1000 nM in the test on MDA-MB-231 cells; 100 to 1000 nM with A549 (Homo sapiens); 100 to 1000 nM in the test with BxPC3 (Homo sapiens, BXPC-3); 100 to 1000 nM in the test on DU145 (Homo sapiens, DU-145); 100 to 1000 nM in the test on HCT116 (Homo sapiens, HCT-116). For the same compound, at TTK, the IC50 (in general, the concentration needed to halve the response being measured) is below 50 nM.

Turning to `COc1cc(N2CCCC2=O)ccc1Nc1nc(NC2CCCC2)c2c(C(F)(F)F)c[nH]c2n1` [Example 52], the GI50 was in the range of 100 to 1000 nM with A549 (Homo sapiens); 100 to 1000 nM with BxPC3 (Homo sapiens, BXPC-3); 100 to 1000 nM in the test on DU145 (Homo sapiens, DU-145); 100 to 1000 nM in the test on HCT116 (Homo sapiens, HCT-116).

For `COc1cc(N2CCCC2=O)ccc1Nc1nc(NC2CCCC2)c2c(C#N)c[nH]c2n1` [Example 55, 4-(cyclopentylamino)-2-((2-methoxy-4-(2-oxopyrrolidin-1-yl)phenyl)amino)-7H-pyrrolo[2,3-d] pyrimidine-5-carbonitrile], the GI50 in the test with MDA-MB-231 cells is below 100 nM; in the test with A549 (Homo sapiens) it was below 100 nM; in the test with BxPC3 (Homo sapiens, BXPC-3), below 100 nM; in the test with DU145 (Homo sapiens, DU-145) it was below 100 nM; in the test on HCT116 (Homo sapiens, HCT-116), below 100 nM. Further, the IC50 against TTK was below 50 nM.

In the case of `COc1cc(N2CCCC2=O)ccc1Nc1cc(NC2CCCC2)c2c(C#N)c[nH]c2n1` [Example 63, 4-(cyclopentylamino)-6-((2-methoxy-4-(2-oxopyrrolidin-1-yl)phenyl)amino)-1H-pyrrolo[2,3-b] pyridine-3-carbonitrile], the GI50 in the test on MDA-MB-231 cells is 100 to 1000 nM; with A549 (Homo sapiens), below 100 nM; with BxPC3 (Homo sapiens, BXPC-3), below 100 nM; with DU145 (Homo sapiens, DU-145), below 100 nM; in the test on HCT116 (Homo sapiens, HCT-116) it was below 100 nM. Also, the IC50 against TTK was below 50 nM.

As for `CNc1nc(Nc2ccc(N3CCCC3=O)cc2OC)nc2[nH]cc(C#N)c12` [Example 54, 2-((2-methoxy-4-(2-oxopyrrolidin-1-yl)phenyl)amino)-4-(methylamino)-7H-pyrrolo[2,3-d] pyrimidine-5-carbonitrile], the GI50 with MDA-MB-231 cells was in the range of 100 to 1000 nM; in the test with A549 (Homo sapiens), 100 to 1000 nM; in the test on BxPC3 (Homo sapiens, BXPC-3), 100 to 1000 nM; with DU145 (Homo sapiens, DU-145), 100 to 1000 nM; in the test with HCT116 (Homo sapiens, HCT-116), 100 to 1000 nM. In addition, the IC50 against TTK lay within 50 to 200 nM.

With `COc1cc(N2CCCC2=O)ccc1Nc1nc(NC2CCCC2)c2cc[nH]c2n1` [Example 47, 1-(4-((4-(cyclopentylamino)-7H-pyrrolo[2,3-d]pyrimidin-2-yl)amino)-3-methoxyphenyl) pyrrolidin-2-one], the GI50 with A549 (Homo sapiens) is below 100 nM; in the test with BxPC3 (Homo sapiens, BXPC-3), below 100 nM; in the test on DU145 (Homo sapiens, DU-145), below 100 nM; in the test with HCT116 (Homo sapiens, HCT-116), below 100 nM.

Consider `COc1cc(N2CCCC2=O)ccc1Nc1nc(NC2CCCCC2)c2c(C#N)c[nH]c2n1` [Example 56, 4-(cyclohexylamino)-2-((2-methoxy-4-(2-oxopyrrolidin-1-yl)phenyl)amino)-7H-pyrrolo[2,3-d] pyrimidine-5-carbonitrile], for which the GI50 with MDA-MB-231 cells was below 100 nM; with A549 (Homo sapiens), below 100 nM; with BxPC3 (Homo sapiens, BXPC-3), below 100 nM; in the test with DU145 (Homo sapiens, DU-145) it was below 100 nM; with HCT116 (Homo sapiens, HCT-116) it was below 100 nM; in the test with SHP-77, below 100 nM. Besides, at TTK, the IC50 is below 50 nM.

As for `COc1cc(N2CCCC2=O)ccc1Nc1nc(NC2CCCCC2)c2cc[nH]c2n1` [Example 48], the GI50 in the test with A549, in the test on BxPC3 (BxPC3), in the test with DU145 (DU145) and in the test with HCT116 (HCT116) was below 100 nM throughout.

For `COc1cc(N2CCCC2=O)ccc1Nc1cc(NC2CCCCC2)c2c(C(F)(F)F)c[nH]c2n1` [Example 62, 1-(4-((4-(cyclohexylamino)-3-(trifluoromethyl)-1H-pyrrolo[2,3-b]pyridin-6-yl)amino)-3-methoxyphenyl) pyrrolidin-2-one], the GI50 with A549 (Homo sapiens) lay within 100 to 1000 nM; with BxPC3 (Homo sapiens, BXPC-3), 100 to 1000 nM; in the test with DU145 (Homo sapiens, DU-145), 100 to 1000 nM; in the test on HCT116 (Homo sapiens, HCT-116), 100 to 1000 nM.
